Test system: 4T1 tumour-bearing BALB/c mice
Settings: mouse, in vivo
Method: 6 week old female BALB/c mice were purchased (Charles River Laboratory BALB/cAnNCrl). 4T1 cells were a generous gift from Dr. Reginald Gorczynski. 4T1 tumours were induced as described^3 into 7-week old mice. Briefly, 1 million 4T1 cells between passages 3-20 in 100 μL of serum-free, antibiotic-free RPMI (Wisent Bioproducts 350-000-EL) were injected into the right inguinal 5th mammary fat pad using a 25G needle. The needle was inserted 1 mm lateral and 3 mm caudal to the nipple, and advanced towards the nipple by 2 mm. Mice were injected with nanoparticles 2 weeks post-induction unless specified otherwise. We aimed to investigate smaller tumours to minimize confounding by the necrotic core and maximize quantification accuracy. Tumour growth was homogeneous (average 14-day tumour size and standard deviation: 0.38±0.15 g). Tumours were size-matched between treatment groups to enable %ID and %ID/g comparisons between groups.
Mice were euthanized by isoflurane overdose followed by cervical dislocation at 2, 8, 24, or 72 hours post nanoparticle injection. Mouse organs were collected and weighed into borosilicate tubes for analysis by ICPMS^5,6. Collected organs included: heart, lungs, liver, spleen, stomach (with diet), large intestines (with diet), small intestines (with diet), kidneys, uterus, dorsal skin, and cardiac blood. For endpoint cardiac blood, mice hearts were quickly exposed by dissecting through the thoracic cavity. A 25G needle/1 mL syringe was inserted into the right ventricle of the beating heart. ˜600 μL cardiac blood was drawn then transferred to a glass tube. For reference, a control tube containing a known proportion of the injected dose was also prepared in a borosilicate tube. 800 μL of 16 M nitric acid (Caledon 7525-1-29) was added to each sample. They were digested at 80° C. in a water bath for 1 hour, and then digested overnight at 50° C. The next morning, 200 μL of 12 M hydrochloric acid (Caledon 6025-1-29) was added and the samples were digested at 80° C. for ≥1 hour. Samples were collected into polypropylene 50 mL centrifuge tubes (Biomart 110708) and then diluted to 40 mL in deionized water for a final acid concentration of 2.5% (v/v). 10 mL of these samples were then filtered through a 0.22 μm PES filter (Fisher Scientific SLGP033RS) into 15 mL centrifuge tubes (Sarstedt 62.554.002). A standard curve for elemental gold and magnesium were prepared by dilution in 2% (v/v) nitric acid and 0.5% (v/v) hydrochloric acid, with concentrations ranging from 0.0001 to 100 mg/mL, with a reference blank of 0. All samples were then quantified using a NexION 350x ICP-MS (PerkinElmer) with mass analyzer set to magnesium Mg 24, iridium Ir 192, and gold Au 197. A 500 μL injection loop was used, and each sample was mixed with carrier solution (2% (v/v) nitric acid) and iridium internal standard (1 μg/mL) before injection into the analyzer. Percent injected dose was the measured gold mass of each sample divided by the measured gold mass of the injected dose.

## gold nanoparticles
  increase in absolute accumulation in the liver: 6000 times
  increase in absolute nanoparticle accumulation in tumour: 7,300,000 times
  liver accumulation: 16 % injected dose/gram
  liver accumulation, large single dose vs same dose divided: reduced
  tumour accumulation: 16 % injected dose/gram
  tumour delivery, large single dose vs same dose divided: increased

From patent US20210338717A1, “NANOPARTICLE DELIVERY TO A TARGET TISSUE” (THE GOVERNING COUNCIL OF THE UNIVERSITY OF TORONTO, priority 2020, published 2021)
